Assay results taken from US9650380B2, “Difluoromethylene compound” (SATO PHARMACEUTICAL CO., LTD., priority 2012, dated 2017).

Target: T1, human URAT1 (Homo sapiens, UniProt Q96S37)
T1 construct: Human URAT1 full-length cDNA was introduced to an expression vector pcDNA5/FRT/V5-His TOPO; expressed in transfected cells
T1 sequence (Q96S37 1-553): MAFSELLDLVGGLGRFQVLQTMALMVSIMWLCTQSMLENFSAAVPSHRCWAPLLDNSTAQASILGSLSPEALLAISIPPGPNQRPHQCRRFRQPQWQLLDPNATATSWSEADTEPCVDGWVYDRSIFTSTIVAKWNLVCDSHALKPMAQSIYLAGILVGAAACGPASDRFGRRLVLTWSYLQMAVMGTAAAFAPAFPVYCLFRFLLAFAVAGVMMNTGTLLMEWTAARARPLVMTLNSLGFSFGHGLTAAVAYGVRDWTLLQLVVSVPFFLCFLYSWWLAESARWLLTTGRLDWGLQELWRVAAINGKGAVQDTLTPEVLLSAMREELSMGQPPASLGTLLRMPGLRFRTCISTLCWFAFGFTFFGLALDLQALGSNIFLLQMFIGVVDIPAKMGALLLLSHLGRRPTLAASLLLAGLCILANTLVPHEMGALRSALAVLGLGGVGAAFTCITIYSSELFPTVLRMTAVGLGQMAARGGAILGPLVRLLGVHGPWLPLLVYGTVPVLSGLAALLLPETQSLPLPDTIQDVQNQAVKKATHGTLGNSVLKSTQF
Test: Test for uric acid transport inhibition using human URAT1 expression cells
Type: cell-based
Details: human URAT1 stable expression CHO cells; 14C-labeled uric acid 38 μM final; incorporation 5 minutes at room temperature; 100% window defined with benzbromarone 100 μM; read-out: URAT1 inhibitory activity (IC50)
Method: In this Example, it was evaluated whether the Example compound and the Reference example compound mentioned below has the URAT1 inhibitory activity.
Human URAT1 full-length cDNA was introduced to an expression vector pcDNA5/FRT/V5-His TOPO (registered trademark) (Invitrogen Corporation). The obtained expression plasmid was introduced to Chinese hamster ovary cell (hereinafter referred to as the CHO cell) by the liposome method using Lipofectamine LTX (Invitrogen) and cultured in a selection medium including hygromycin, whereby to prepare human URAT1 stable expression cell.
The human URAT1 expression CHO cell were cultured using D-MEM/F-12 (1:1) mixed medium including 10% bovine fatal serum and hygromycin at 37° C. in the presence of 5% CO2. The cells were seeded onto a 96-well plate (Corning Incorporated) at 0.8×10^5 cells/well, and after 24 hours, the test for uric acid transport inhibition below was performed.
The medium was removed by aspiration, and then the cells were washed once with an assay buffer including 125 mM of sodium gluconate, 4.8 mM of potassium gluconate, 1.2 mM of potassium dihydrogen phosphate, 1.2 mM of magnesium sulfate, 1.3 mM of calcium gluconate and 5.6 mM of glucose, 50 μL assay buffer including the test compound in various concentrations was added, and further 50 μL assay buffer including a radioactive ligand (uric acid labeled with ^14C; 38 μM final concentration) was added, and incorporation reaction was performed at room temperature for 5 minutes. Immediately after the completion of the reaction, the reaction mixture was washed twice with 100 μL ice-cold assay buffer, and 100 μL of 0.1N sodium hydroxide was added. The reaction mixture was stirred to lyse the cells, and 4 mL of Hionic-Fluor (Packard BioScience CO.) was added, and then the radioactivity was measured with a liquid scintillation counter (Beckman Coulter, Inc. and Packard BioScience CO).
The radioactivitiy when each concentration of the test compound was added (uric acid incorporation activity, %) was calculated in which the difference of the radioactivity when the test compound was not added (DMSO added) and the radioactivity when a positive control compound, benzbromarone (a known URAT1 inhibitor) was added in 100 μM, was taken as 100%, and the concentration of the test compound when the uric acid incorporation activity was inhibited to 50% (IC50) was obtained.

| SMILES | IC50 |
| --- | --- |
| Cc1cccc(Cl)c1Cn1nc(C)c2ccc(C(F)(F)C(=O)O)cc21 [Example 3, [1-(2-chloro-6-methylbenzyl)-3-methyl-1H-indazol-6-yl]difluoroacetic acid] | 26 nM |
| Cc1nn(Cc2c(Cl)cccc2C2CC2)c2cc(C(F)(F)C(=O)O)ccc12 [Example 12, [1-(2-chloro-6-cyclopropylbenzyl)-3-methyl-1H-indazol-6-yl]difluoroacetic acid] | 17 nM |
| O=C(O)C(F)(F)c1ccc2c(Cl)nn(Cc3c(Cl)cccc3Cl)c2c1 [Example 34, [3-chloro-1-(2,6-dichlorobenzyl)-1H-indazol-6-yl]difluoroacetic acid] | 15 nM |
| O=C(O)C(F)(F)c1ccc2c(C(F)(F)F)nn(Cc3c(Cl)cccc3Cl)c2c1 [Example 36, [1-(2,6-dichlorobenzyl)-3-trifluoromethyl-1H-indazol-6-yl]difluoroacetic acid] | 107 nM |
| Cc1nn(Cc2c(Cl)cccc2C2CC2)c2cc(C(F)(F)C(=O)O)cnc12 [Example 38, [1-(2-chloro-6-cyclopropylbenzyl)-3-methyl-1H-pyrazolo[4,3-b]pyridin-6-yl]difluoroacetic acid] | 34 nM |
| CCc1nn(Cc2c(F)cccc2C2CC2)c2cc(C(F)(F)C(=O)O)cnc12 [Example 46, [1-(2-cyclopropyl-6-fluorobenzyl)-3-ethyl-1H-pyrazolo[4,3-b]pyridin-6-yl]difluoroacetic acid] | 243 nM |
| Cc1cn(Cc2c(Cl)cccc2Cl)c2cc(C(F)(F)C(=O)O)ccc12 [Example 49, [1-(2,6-dichlorobenzyl)-3-methyl-1H-indol-6-yl]difluoroacetic acid] | 38 nM |
| Cc1nn(Cc2c(Cl)cccc2Cl)c2cc(C(F)(F)c3nnn[nH]3)ccc12 [Example 50, 1-(2,6-dichlorobenzyl)-6-[difluoro(1H-tetrazol-5-yl)methyl]-3-methyl-1H-indazole] | 7 nM |
| Cc1cccc(C#N)c1Cn1nc(C)c2ccc(C(F)(F)c3nnn[nH]3)cc21 [Example 71, 2-{6-[difluoro(1H-tetrazol-5-yl)methyl]-3-methyl-1H-indazol-1-ylmethyl}-3-methylbenzonitrile] | 6 nM |
| Cc1nn(Cc2ccc(C#N)cc2)c2cc(C(F)(F)c3nnn[nH]3)ccc12 [Example 88, 4-{6-[difluoro(1H-tetrazol-5-yl)methyl]-3-methyl-1H-indazol-1-ylmethyl}benzonitrile] | 34 nM |
| Cc1nn(Cc2c(C#N)ccnc2Cl)c2cc(C(F)(F)c3nnn[nH]3)ccc12 [Example 92, 2-chloro-3-{6-[difluoro(1H-tetrazol-5-yl)methyl]-3-methyl-1H-indazol-1-ylmethyl}isonicotinonitrile] | 21 nM |
| Cc1nn(Cc2cccc3ccncc23)c2cc(C(F)(F)c3nnn[nH]3)ccc12 [Example 94, 8-{6-[difluoro(1H-tetrazol-5-yl)methyl]-3-methyl-1H-indazol-1-ylmethyl}isoquinoline] | 125 nM |
| Cc1nn(Cc2c(F)cccc2Cl)c2cc(C(F)(F)c3n[nH]c(=O)o3)ccc12 [Example 101, 5-{[1-(2-chloro-6-fluorobenzyl)-3-methyl-1H-indazol-6-yl]difluoromethyl}-1,3,4-oxadiazol-2(3H)-one] | 9 nM |
| Cc1nn(S(=O)(=O)c2c(Cl)cccc2Cl)c2cc(C(F)(F)c3nnn[nH]3)ccc12 [Example 102, 1-(2,6-dichlorobenzenesulfonyl)-6-[difluoro(1H-tetrazol-5-yl)methyl]-3-methyl-1H-indazole] | 142 nM |
| Cc1cccc(CC#N)c1Cn1nc(C)c2ccc(C(F)(F)c3nnn[nH]3)cc21 [Example 107, (2-{6-[difluoro(1H-tetrazol-5-yl)methyl]-3-methyl-1H-indazol-1-ylmethyl}-3-methylphenyl)acetonitrile] | 12 nM |
| Cc1cccc(C#N)c1Cn1nc(C)c2ccc(C(F)(F)c3nnn[nH]3)nc21 [Example 109, 2-{6-[difluoro(1H-tetrazol-5-yl)methyl]-3-methyl-1H-pyrazolo[3,4-b]pyridin-1-ylmethyl}-3-methylbenzonitrile] | 13 nM |

| SMILES | IC50 |
| --- | --- |
| Cc1nn(Cc2c(Cl)cccc2C2CC2)c2cc(C(=O)O)cnc12 [Reference Example 2, 1-(2-chloro-6-cyclopropylbenzyl)-3-methyl-1H-pyrazolo[4,3-b]pyridine-6-carboxylic acid, reference compound] | 53 nM |
| O=C(O)c1cnc2c(Cl)nn(Cc3c(Cl)cccc3C3CC3)c2c1 [Reference Example 3, 3-chloro-1-(2-chloro-6-cyclopropylbenzyl)-1H-pyrazolo[4,3-b]pyridine-6-carboxylic acid, reference compound] | 32 nM |
| O=C(O)c1cnc2c(C(F)(F)F)nn(Cc3c(Cl)cccc3C3CC3)c2c1 [Reference Example 5, 1-(2-chloro-6-cyclopropylbenzyl)-3-trifluoromethyl-1H-pyrazolo[4,3-b]pyridine-6-carboxylic acid, reference compound] | 13 nM |
| Cc1nn(Cc2c(Cl)cccc2C2CC2)c2cc(CCC(=O)O)ccc12 [Reference Example 8, 3-[1-(2-chloro-6-cyclopropylbenzyl)-3-methyl-1H-indazol-6-yl]propionic acid, reference compound] | 24 nM |
| Cc1nn(Cc2c(Cl)cccc2Cl)c2cc(C(O)c3nnn[nH]3)ccc12 (stereo not shown) [Reference Example 9, [1-(2,6-dichlorobenzyl)-3-methyl-1H-indazol-6-yl](1H-tetrazol-5-yl)methanol, reference compound] | 78 nM |
| O=C(O)Cc1ccc2c(C(F)(F)F)nn(Cc3c(Cl)cccc3Cl)c2c1 [Reference Example 11, [1-(2,6-dichlorobenzyl)-3-trifluoromethyl-1H-indazol-6-yl]acetic acid, reference compound] | 15 nM |
| O=C(O)Cc1ccc2c(Cl)nn(Cc3c(Cl)cccc3Cl)c2c1 [Reference Example 12, [3-chloro-1-(2,6-dichlorobenzyl)-1H-indazol-6-yl]acetic acid, reference compound] | 16 nM |
| Cc1nn(Cc2c(F)cccc2Cl)c2cc(C(F)(F)C(=O)O)ccc12 [example 9, [1-(2-chloro-6-fluorobenzyl)-3-methyl-1H-indazol-6-yl]difluoroacetic acid] | 40 nM |
| Cc1nn(Cc2cccc(Cl)c2Cl)c2cc(C(F)(F)C(=O)O)ccc12 [example 14, [1-(2,3-dichlorobenzyl)-3-methyl-1H-indazol-6-yl]difluoroacetic acid] | 48 nM |
| Cc1nn(Cc2c(F)cccc2C(F)(F)F)c2cc(C(F)(F)C(=O)O)ccc12 [example 22, difluoro[1-(2-fluoro-6-trifluoromethylbenzyl)-3-methyl-1H-indazol-6-yl]acetic acid] | 52 nM |
| Cc1cccc(C#N)c1Cn1nc(C)c2ccc(C(F)(F)C(=O)O)cc21 [example 24, [1-(2-cyano-6-methylbenzyl)-3-methyl-1H-indazol-6-yl]difluoroacetic acid] | 26 nM |
| Cc1nn(Cc2c(C#N)cccc2C2CC2)c2cc(C(F)(F)C(=O)O)ccc12 [example 32, [1-(2-cyano-6-cyclopropylbenzyl)-3-methyl-1H-indazol-6-yl]difluoroacetic acid] | 23 nM |
| Cc1nn(Cc2c(C#N)cccc2CO)c2cc(C(F)(F)C(=O)O)ccc12 [example 53, [1-(2-cyano-6-hydroxymethylbenzyl)-3-methyl-1H-indazol-6-yl]difluoroacetic acid] | 390 nM |
| Cc1nn(Cc2c(Cl)cccc2C(N)=O)c2cc(C(F)(F)c3nnn[nH]3)ccc12 [example 67, 3-chloro-2-{6-[difluoro(1H-tetrazol-5-yl)methyl]-3-methyl-1H-indazol-1-ylmethyl}benzamide] | 46 nM |
| Cc1nn(Cc2c(C#N)cccc2CO)c2cc(C(F)(F)c3nnn[nH]3)ccc12 [example 104] | 30 nM |
